Experimental data: patent US20090098652A1, “SELF ASSEMBLING PEPTIDE SYSTEMS AND METHODS” (Northwestern University, priority 2007, published 2009)
Where a SMILES comes first, the peptide text is derived from it. The star is where a group is joined. Palmitoyl = CCCCCCCCCCCCCCCC(=O)*

Legend:
[1] = test system: P19 cells in suspension aggregates; assay: Transfection of P19 suspension aggregates with GFP plasmid, read by qPCR and Western blot; assay type: cell-based; settings: comparison of PA system, peptide and Lipofectamine
Source text: In the figure, “peptide amphiphile” is the DNA-binding PA with sequence […](N^ε-palmitoyl) and “peptide” is a peptide with sequence […].
In some embodiments, the invention described here improves on this system by incorporating one or more peptides which are bioactive and direct the complex to the nucleus. It is designed, in some embodiments, to form an alpha helix which binds to the major groove of the double helix of DNA. In addition, it is a self-assembling peptide amphiphile (PA) which forms high aspect ratio nanostructures. When complexed with DNA, these nanostructures are, on average, smaller than the nanostructures produced by LIPOFECAMINE as determined by dynamic light scattering. The present invention is not limited to a particular mechanism. Indeed, an understanding of the mechanism is not necessary to practice the present invention. Nonetheless, it is contemplated that the system works by complexing and condensing the DNA through specific binding to the major groove and electrostatic screening. This DNA-PA complex is similar to the LIPOFECTAMINE complex, however it includes a peptide region containing a nuclear localization signal which directs the cell to move this complex through the cytoplasm and into the nucleus where the genes encoded in the DNA are subsequently expressed. […]

P19 cells = settings: flow cytometry; all tested concentrations
Experimental: In experiments conducted during development of embodiments of the present invention, P19 cells in suspension were allowed to form aggregates for four days and were then cultured with the histidine hexamer PA, with sequence [sequence]-palmitoyl for two weeks. […] P19 cells were allowed to form aggregates for seven days and then cultured with the DNA-PA complexes.

Compound | transfection efficiency (in words) [1] | transfection efficiency (in words) ([1]; listed as peptide control) | toxicity to P19 cells (P19 cells)
RKTAKRLGVYQSAINK [peptide] | lower transfection efficiency | poor results compared to both the lipofectamine system and the PA system | –
CCCCCCCCCCCCCCCC(=O)NCCCC[C@H](NC(=O)[C@H](C)NC(=O)[C@H](C)NC(=O)[C@H](C)NC(=O)[C@H](CC(C)C)NC(=O)[C@H](CC(C)C)NC(=O)[C@H](CC(C)C)NC(=O)[C@H](CCCCN)NC(=O)[C@H](CC(N)=O)NC(=O)[C@@H](NC(=O)[C@H](C)NC(=O)[C@H](CO)NC(=O)[C@H](CCC(N)=O)NC(=O)[C@H](Cc1ccc(O)cc1)NC(=O)[C@@H](NC(=O)CNC(=O)[C@H](CC(C)C)NC(=O)[C@H](CCCNC(=N)N)NC(=O)[C@H](CCCCN)NC(=O)[C@H](C)NC(=O)[C@@H](NC(=O)[C@H](CCCCN)NC(=O)[C@@H](N)CCCNC(=N)N)[C@@H](C)O)C(C)C)[C@@H](C)CC)C(=O)O [DNA-binding PA] (H-RKTAKRLGVYQSAINKLLLAAAK(Palmitoyl)-OH) | – | – | nontoxic
